The values that follow are results of earlier work, collected in US8148337B2, “Vaginal compositions for treating pelvic tissue infections and traumas” (priority 2003, dated 2012).

SMILES strings stand for the structures.

The test system of one data set is chlamydial infection. The note with it: orally as a single dose.
The conditions of data set [1]: administered rectally.

In the case of `CC[C@H]1OC(=O)[C@H](C)[C@@H](O[C@H]2C[C@@](C)(OC)[C@@H](O)[C@H](C)O2)[C@H](C)[C@@H](O[C@@H]2O[C@H](C)C[C@H](N(C)C)[C@H]2O)[C@](C)(O)C[C@@H](C)CN(C)[C@H](C)[C@@H](O)[C@]1(C)O` [azithromycin], in the data set with chlamydial infection, the “women who experience side effects” value is given as 25%. Also, the bioavailability result in data set [1] was “highly variable and low”.
